Measured values reported in ChEMBL document CHEMBL1201862, “PubChem BioAssay data set” (2004).
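Five concentrations, 48 hours, 96-well plates. Here, GI50 denotes the concentration required for 50% inhibition of growth.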 Active and inactive are the calls of the source. Cut-off read from the data, not from the text of the source: active = GI50 up to about 1.1 µM and inactive = higher.

Legend:
Experiment in all cases: growth of human tumour cells (NCI), 48 h
[1] = system: HT-29
[2] = system: UACC-257
[3] = system: HCC 2998
[4] = system: NCI-H460
[5] = system: KM12
[6] = system: SK-MEL-28
[7] = system: CCRF-CEM
[8] = system: A549
[9] = system: RPMI-8226
[10] = system: CAKI-1
[11] = system: UO-31
[12] = system: EKVX
[13] = system: NCI-H226
[14] = system: OVCAR-3
[15] = system: SR
[16] = system: HOP-92

Measured: GI50

O=C(O)\C=C/C=C/C=C/C=C/C(=O)O
inactive: [1] > 100 µM | [2] > 100 µM | [3] > 100 µM | [4] > 100 µM | [5] > 100 µM | [6] > 100 µM | [7] > 100 µM | [8] > 100 µM | [9] > 100 µM | [10] > 100 µM | [11] > 100 µM | [12] > 100 µM | [13] > 100 µM | [14] > 100 µM | [15] > 100 µM

CC1=C(C(=O)Nc2ccc(Cl)c(Cl)c2)C(c2ccco2)C(C(=O)Nc2ccc(Cl)c(Cl)c2)=C(C)N1
inactive: [1] 14.4 µM | [2] 14.7 µM | [3] 11.5 µM | [4] 13.7 µM | [5] 13.4 µM | [6] 11.7 µM | [7] 6.58 µM | [8] 12.5 µM | [9] 7.16 µM | [10] 14 µM | [11] 10.1 µM | [12] 14.9 µM | [13] 12.5 µM | [16] 15.8 µM | [14] 7.98 µM | [15] 10.6 µM

CC(=O)N(C(C)=O)C1=C2c3ccccc3N(S(=O)(=O)c3ccccc3)C2n2c(=O)n(-c3ccccc3)c(=O)n2C1 (stereo not given)
inactive: [1] 59 µM | [2] 44.2 µM | [3] 22.7 µM | [4] 15.3 µM | [5] 34.7 µM | [6] 30 µM | [7] 35 µM | [8] 65.6 µM | [9] 12.7 µM | [10] 27.5 µM | [11] 29.7 µM | [12] 21.9 µM | [16] 24.2 µM | [14] 25.5 µM | [15] 5.78 µM

Nc1cc2c(C3OC(CO)C(O)C3O)n[nH]c2c(=S)[nH]1 (stereo not given)
inactive: [1] > 100 µM | [2] > 100 µM | [3] > 100 µM | [4] > 100 µM | [5] > 100 µM | [6] > 100 µM | [7] > 100 µM | [8] > 100 µM | [9] > 100 µM | [10] 54.3 µM | [11] > 100 µM | [12] > 100 µM | [13] > 100 µM | [16] > 100 µM | [15] > 100 µM

NC(=O)N/N=C(/Cc1nc2ccc(C(=O)c3ccccc3)cc2nc1O)C(=O)Nc1ccc(C(F)(F)F)cc1[N+](=O)[O-]
inactive: [1] 57.4 µM | [2] > 100 µM | [3] 61.4 µM | [4] 65 µM | [5] 84.5 µM | [6] > 100 µM | [7] 36.5 µM | [8] > 100 µM | [9] 50.1 µM | [10] 42.8 µM | [11] 51.5 µM | [12] 14.2 µM | [16] 45.7 µM | [14] 43.4 µM | [15] 45.4 µM

N#Cc1sc2nc3c(c(-c4ccccc4)c2c1N)CCCC3
inactive: [1] > 100 µM | [2] > 100 µM | [3] > 100 µM | [4] 55.2 µM | [5] > 100 µM | [6] > 100 µM | [7] > 100 µM | [8] > 100 µM | [9] > 100 µM | [10] > 100 µM | [11] > 100 µM | [13] > 100 µM | [16] 30.1 µM | [14] > 10 µM | [15] > 100 µM

Nc1ccc(/C=C/c2ccnc3ccccc23)cc1
inactive: [1] 23.4 µM | [2] 22.2 µM | [3] 28.4 µM | [4] 16.1 µM | [5] 16.2 µM | [6] 32.4 µM | [7] 12.1 µM | [8] 19.4 µM | [9] 15.6 µM | [10] 21.9 µM | [11] 16.5 µM | [13] 17.7 µM | [16] 20.3 µM | [14] 15 µM | [15] 2.84 µM

COC1OC(C)C(OCc2ccccc2)C(OS(=O)(=O)c2ccc(C)cc2)C1OS(=O)(=O)c1ccc(C)cc1 (stereo not given)
inactive: [1] > 100 µM | [2] > 100 µM | [3] > 100 µM | [4] > 100 µM | [5] > 100 µM | [6] > 100 µM | [7] > 100 µM | [8] > 100 µM | [9] > 100 µM | [10] 53.5 µM | [11] > 100 µM | [12] > 100 µM | [13] > 100 µM | [14] > 100 µM | [15] > 100 µM

CC(c1ccccc1)N1O[C@]12CC[C@@]1(C)C(CCCC13OCCO3)C2 (stereo not given in full)
inactive: [1] 21.7 µM | [2] 21.4 µM | [3] 75.5 µM | [4] 20.4 µM | [5] 21.3 µM | [6] 47.8 µM | [8] 24.5 µM | [9] 35.7 µM | [10] 22.2 µM | [11] 18 µM | [13] > 100 µM | [16] 11.1 µM | [14] 18.7 µM | [15] 16.7 µM
